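These data come from cells grown in 96-well plates and exposed to compound for 48 hours at five concentrations. The concentration for 50% growth inhibition is given as GI50.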 Active and inactive are the calls of the source. Rule as the data show it: active = GI50 up to about 1.1 µM and inactive = higher.
Legend:
Assay in all cases: inhibition of tumour cell growth, NCI panel, 48 h
786-0 = tested on: 786-0
CAKI-1 = tested on: CAKI-1
DU-145 = tested on: DU-145
HCC 2998 = tested on: HCC 2998
HOP-62 = tested on: HOP-62
HOP-92 = tested on: HOP-92
Hs-578T = tested on: Hs-578T
KM12 = tested on: KM12
MDA-MB-435 = tested on: MDA-MB-435
NCI-H226 = tested on: NCI-H226
NCI-H460 = tested on: NCI-H460
OVCAR-8 = tested on: OVCAR-8
RPMI-8226 = tested on: RPMI-8226
SN12C = tested on: SN12C
SNB-19 = tested on: SNB-19
TK-10 = tested on: TK-10
UO-31 = tested on: UO-31
Malme-3M = tested on: Malme-3M
OVCAR-3 = tested on: OVCAR-3
T47D = tested on: T47D

| SMILES | GI50 (786-0) | GI50 (CAKI-1) | GI50 (DU-145) | GI50 (HCC 2998) | GI50 (HOP-62) | GI50 (HOP-92) | GI50 (Hs-578T) | GI50 (KM12) | GI50 (MDA-MB-435) | GI50 (NCI-H226) | GI50 (NCI-H460) | GI50 (OVCAR-8) | GI50 (RPMI-8226) | GI50 (SN12C) | GI50 (SNB-19) | GI50 (TK-10) | GI50 (UO-31) | GI50 (Malme-3M) | GI50 (OVCAR-3) | GI50 (T47D) |
| --- | --- | --- | --- | --- | --- | --- | --- | --- | --- | --- | --- | --- | --- | --- | --- | --- | --- | --- | --- | --- |
| CCOc1cc2c(cc1O)/C(=N\O)C[C@@H]1[C@@H]2CC[C@]2(C)[C@@H](O)CC[C@@H]12 | < 0.0208 µM (active) | < 0.0235 µM (active) | < 0.0197 µM (active) | 2.72 µM (inactive) | < 0.0201 µM (active) | 0.00782 µM (active) | < 0.0221 µM (active) | 0.168 µM (active) | 0.011 µM (active) | 0.0817 µM (active) | < 0.0198 µM (active) | < 0.028 µM (active) | 0.0238 µM (active) | < 0.0216 µM (active) | < 0.01 µM (active) | 29.6 µM (inactive) | 0.147 µM (active) | – | – | – |
| Cc1ccc(O)c(-c2cscn2)c1 | 33.2 µM (inactive) | 39.3 µM (inactive) | – | 24.7 µM (inactive) | 33.3 µM (inactive) | 43.7 µM (inactive) | 32.9 µM (inactive) | – | 52.6 µM (inactive) | – | 28.5 µM (inactive) | 42.9 µM (inactive) | 36 µM (inactive) | 35.2 µM (inactive) | 25.1 µM (inactive) | 44.8 µM (inactive) | 22.8 µM (inactive) | > 100 µM (inactive) | 35.2 µM (inactive) | – |
| C/C(=N\Nc1nc2cccnc2s1)c1ccccn1 | 0.0512 µM (active) | < 0.0105 µM (active) | 0.316 µM (active) | 1.07 µM (active) | 0.401 µM (active) | 0.37 µM (active) | 0.436 µM (active) | 0.273 µM (active) | 0.8 µM (active) | < 0.0155 µM (active) | 0.0369 µM (active) | < 0.01 µM (active) | < 0.0143 µM (active) | < 0.01 µM (active) | 0.491 µM (active) | – | 0.0158 µM (active) | < 0.01 µM (active) | < 0.0169 µM (active) | – |
| O=C(O)c1[nH]c(C(=O)O)c(CC(F)(F)C(F)(F)C(F)(F)F)c1CC(F)(F)C(F)(F)C(F)(F)F | > 100 µM (inactive) | > 100 µM (inactive) | – | > 100 µM (inactive) | > 100 µM (inactive) | 39.9 µM (inactive) | – | > 100 µM (inactive) | – | > 100 µM (inactive) | > 100 µM (inactive) | > 100 µM (inactive) | > 100 µM (inactive) | > 100 µM (inactive) | > 100 µM (inactive) | > 100 µM (inactive) | > 100 µM (inactive) | > 100 µM (inactive) | > 100 µM (inactive) | – |
| O=P1(O)c2ccccc2CCc2ccccc21 | > 100 µM (inactive) | > 100 µM (inactive) | > 100 µM (inactive) | > 100 µM (inactive) | > 100 µM (inactive) | > 100 µM (inactive) | > 100 µM (inactive) | > 100 µM (inactive) | > 100 µM (inactive) | > 100 µM (inactive) | – | > 100 µM (inactive) | > 100 µM (inactive) | > 100 µM (inactive) | > 100 µM (inactive) | > 100 µM (inactive) | > 100 µM (inactive) | – | > 100 µM (inactive) | – |
| COC(=O)Cc1c(-c2c(CC(=O)OC)c3ccccc3n2C2OC(COC3OC(COC(C)=O)C(OC(C)=O)C(OC(C)=O)C3OC(C)=O)C(O)C(O)C2O)[nH]c2ccccc12 (centres undefined) | 37 µM (inactive) | > 100 µM (inactive) | > 100 µM (inactive) | – | 23 µM (inactive) | 27.9 µM (inactive) | – | – | > 100 µM (inactive) | 61.4 µM (inactive) | > 100 µM (inactive) | – | > 100 µM (inactive) | > 100 µM (inactive) | 22.8 µM (inactive) | 71 µM (inactive) | > 100 µM (inactive) | – | > 100 µM (inactive) | > 100 µM (inactive) |
| CNC(=O)NCCCC(NC(C)=O)C(=O)NCc1ccccc1 (centres undefined) | > 100 µM (inactive) | > 100 µM (inactive) | – | > 100 µM (inactive) | > 100 µM (inactive) | 92.9 µM (inactive) | – | > 100 µM (inactive) | – | > 100 µM (inactive) | > 100 µM (inactive) | > 100 µM (inactive) | > 100 µM (inactive) | > 100 µM (inactive) | > 100 µM (inactive) | > 100 µM (inactive) | > 100 µM (inactive) | > 100 µM (inactive) | > 100 µM (inactive) | – |
| CCOC(=O)CCn1ncc(Cl)c(Cl)c1=O | 14.3 µM (inactive) | 6.18 µM (inactive) | – | 3.93 µM (inactive) | 21.4 µM (inactive) | 11.9 µM (inactive) | – | 4.86 µM (inactive) | – | 10.9 µM (inactive) | 11.9 µM (inactive) | 5.98 µM (inactive) | 2.38 µM (inactive) | 13.7 µM (inactive) | 13.5 µM (inactive) | 17.9 µM (inactive) | 15.7 µM (inactive) | 14.2 µM (inactive) | 3.57 µM (inactive) | – |
| CCOC(=O)/C=C(/C(=O)OCC)n1cc(Cl)c(=O)n(CC(=O)OCC)c1=O | 0.828 µM (active) | 3.94 µM (inactive) | 4.61 µM (inactive) | – | 22.4 µM (inactive) | 5.15 µM (inactive) | – | > 25 µM (inactive) | 4.95 µM (inactive) | > 25 µM (inactive) | 9.02 µM (inactive) | 4.53 µM (inactive) | 2.47 µM (inactive) | 5.64 µM (inactive) | > 25 µM (inactive) | 4.14 µM (inactive) | – | 6.11 µM (inactive) | 5.98 µM (inactive) | 4.81 µM (inactive) |
| O=C(NCCO)c1c(O)c2ccccc2[nH]c1=O | > 100 µM (inactive) | > 100 µM (inactive) | > 100 µM (inactive) | > 100 µM (inactive) | > 100 µM (inactive) | > 100 µM (inactive) | > 100 µM (inactive) | > 100 µM (inactive) | > 100 µM (inactive) | > 100 µM (inactive) | > 100 µM (inactive) | > 100 µM (inactive) | > 100 µM (inactive) | > 100 µM (inactive) | > 100 µM (inactive) | > 100 µM (inactive) | 83.6 µM (inactive) | > 100 µM (inactive) | > 100 µM (inactive) | – |
| COc1cc2cc[n+]3c4cc(OC)c(OC)cc4c(C)cc3c2cc1OC | > 100 µM (inactive) | > 100 µM (inactive) | – | 61.8 µM (inactive) | > 100 µM (inactive) | > 100 µM (inactive) | – | > 100 µM (inactive) | – | > 100 µM (inactive) | > 100 µM (inactive) | > 100 µM (inactive) | > 100 µM (inactive) | > 100 µM (inactive) | 29.3 µM (inactive) | > 100 µM (inactive) | > 100 µM (inactive) | > 100 µM (inactive) | > 100 µM (inactive) | – |
| C1=Cc2nc1c(-c1ccccc1)c1nc(c(-c3ccccc3)c3ccc([nH]3)c(-c3ccccc3)c3ccc([nH]3)c2-c2ccccc2)C=C1 [TETRAPHENYLPORPHYRIN] | > 100 µM (inactive) | > 100 µM (inactive) | – | > 100 µM (inactive) | > 100 µM (inactive) | > 100 µM (inactive) | – | > 100 µM (inactive) | – | > 100 µM (inactive) | > 100 µM (inactive) | > 100 µM (inactive) | > 100 µM (inactive) | > 100 µM (inactive) | > 100 µM (inactive) | > 100 µM (inactive) | > 100 µM (inactive) | > 100 µM (inactive) | > 100 µM (inactive) | – |

From ChEMBL document CHEMBL1201862, “PubChem BioAssay data set” (2004)
